Assay [1] relates to Neuromyelitis Optica (NMO) induced by the adoptive transfer of Th17 Experimental Autoimmune Encephalomyelitis (EAE) cells. Put plainly: NMO induced by adoptive transfer of Th17 EAE cells (15×10^6 cells), clinical scores (Example 1). It counts as in vivo, C57BL/6 mice. The conditions noted are these: 2 mg A1AT in PBS i.p. daily day 5 to day 18; vs PBS; n=10 mice per group. An excerpt:
C57BL/6 donor mice were immunized via subcutaneous injection with MOG-35-55 peptide in complete Freund's Adjuvant. This induces Experimental Autoimmune Encephalomyelitis (EAE), an animal model for progressive multiple sclerosis. (Miller et al., Curr. Protoc. Immunol., Chapter Unit 15.1 (2007); incorporated herein by reference in its entirety). The mice were boosted […] via intraperitoneal injection with Pertussis toxin on day 0, 2, and 7 days post-immunization. Mice were sacrificed and spleens and lymph nodes collected and resuspended into single cell suspensions. Cells were cultured with MOG peptide and IL-23 to increase Th17 skewing and cultured for 3 days. Cells were harvested and approximately 15×10̂6 cells were adoptively transferred into recipient C57BL/6 mice via intraperitoneal injection. Starting day 5 for 2 weeks until day 18, mice were administered daily via intraperitoneal injection with 100 uL of PBS or A1AT (2 mg A1AT formulated in PBS). Clinical scores were measured each day at approximately the same time of day. Clinical scores measure ascending paralysis. A score of 1 is a limp tail. A score of 2 includes hind limb weakness. A score of 3 includes hind limb paralysis. A score of 4 includes forelimb weakness. A score of 5 is indicated by death. (See Miller et al.).

The test system of assay [2] is NMO mouse model, spines (cervical, thoracic and lumbar sections). Put plainly: Spine histopathology scores in NMO mouse model, blinded study (Example 3). It counts as in vivo, C57BL/6 mice. The conditions noted are these: spines collected Day 18; for Demyelination (H + E) score +/− SD: hematoxylin and eosin stained section, 4 mice per cohort. An excerpt: An NMO mouse model as described above was used. Spines were collected from 4 mice per treatment cohort on Day 18 and prepared for histology. Sections from cervical, thoracic and lumbar spine regions were scored and averaged. […] Bold formatting indicates significant (p<0.05) difference of treatment compared to PBS (control).

For assay [3], the system named is spleen cells of Th17-polarized cell transplanted mice restimulated with MOG peptide. Nature of the assay: Ex vivo cytokine measurements from spleen cells restimulated with MOG peptide, cytokine bead assay (Example 4). It counts as in vivo. How it is done:
Ex vivo cytokine measurements from spleen cells of Th17-polarized cell transplanted mice restimulated with MOG peptide were conducted to survey effector and memory recall responses of the immune cell compartment, primarily from T cells. Spleens were collected from 6 mice per treatment cohort on Day 18. Single cell suspensions were prepared and cultured with the indicated amounts of MOG35-55 peptide. Supernatants were collected after 3 days of culture and IL-17A, IFN-γ, IL-6, or IL-2 measured by cytokine bead assay (BD Biosciences, San Jose, Calif., Cat. No. 560485). The results in this blinded study were expressed in cytokine pg/mL+/−SEM.

The subject of another assay is NMO mouse model. Put plainly: Mouse NMO model, more severe disease (25×10^6 Th17-polarized cells), disease scores, blinded study (Example 3). It counts as in vivo, C57BL/6 mice. To be noted: for End Score (end disease score +/− SD): Day 17 post-transfer, AAT 2 mg or both i.p. daily Day 4 to Day 16; for End Score (end disease score +/− SD) / MMS +/− SD (mean maximum disease score) / Mean Day of Onset +/− SEM: Mpred 0.5 mg; for MMS +/− SD (mean maximum disease score) / Mean Day of Onset +/− SEM: AAT 2 mg or both i.p. daily Day 4 to Day 16 post-transfer; for Mean Day of Onset +/− SEM: 10 mice per cohort. The protocol: 25×10^6 cells prepared as above were adoptively transferred i.p. into recipient C57BL/6 mice. Mice received PBS, Mpred (0.5 mg), AAT (2 mg), or both AAT+Mpred as daily doses administered i.p. starting on Day 4 post-transfer until Day 16 post-transfer. Ten recipient mice per cohort. […] The bold p-values indicate significant (p<0.05) differences between the treatments when compared to PBS (control).

The subject of a further assay is murine model of NMO. Nature of the assay: Murine model of NMO, less severe disease (12×10^6 Th17-polarized cells), disease score (Example 2). To be noted: FIG. 2. It counts as in vivo, C57BL/6 mice. How it is done: Blood-derived human A1AT was compared to Sivelestat in a murine model of NMO. A less severe disease was induced when 12×10^6 Th17-polarized cells were adoptively transferred i.p. into recipient C57BL/6 mice. To induce Th17-polarized cells, C57BL/6 mice were induced with MOG35-55/CFA. 11 days later, their spleen cells were harvested and restimulated in culture with MOG35-55 peptide (Miller et al., supra) for 3 days.
Mice received PBS, Sivelestat (0.5 mg), or A1AT (2 mg) as daily doses administered i.p. starting on Day 5 post-transfer until Day 18 post-transfer. There were 10 recipient mice per cohort. Error bars represent SEM. Points where A1AT compared to PBS and mean disease scores were significant (p<0.05) are indicated (*).

Entries after “also recorded” stand apart in the source; their conditions may differ.

As to alpha-1 antitrypsin [A1AT], the “Clinical scores (ascending paralysis)” value in assay [1] was “significant improvement when compared to PBS treatment”. Also, the “Demyelination (H + E) score +/− SD” value in assay [2] is 1.8 +/− 0.4. For the same molecule, the “Apoptotic Cells +/− SD (apoptotic cell counts)” value in assay [2] (4 mice per treatment cohort) was 2.5 +/− 0.3. The IL-17A result in assay [3] (spleens Day 18, 6 mice per cohort, supernatants after 3 days culture with MOG35-55, FIG. 5A) is “decreased the inflammatory cytokines IL-17A compared to PBS and Mpred alone; also recorded: decreased the inflammatory cytokine IL-17A when compared to PBS and Mpred alone”. In assay [3] (spleens Day 18, 6 mice per cohort, supernatants after 3 days culture with MOG35-55, FIG. 5B), the IFN-γ result is reported as “decreased the inflammatory cytokine IFN-γ when compared to Mpred alone”. The IL-2 entry in assay [3] (without antigenic restimulation (0 MOG peptide), compared to Mpred alone, FIG. 5D) is on record as “IL-2 levels were higher without antigenic restimulation (0 MOG peptide)”. Further, in the assay with NMO mouse model, the “End Score (end disease score +/− SD)” value is recorded as 3.10 +/− 0.57, the “MMS +/− SD (mean maximum disease score)” value is reported as 3.50 +/− 0.00 and the “Mean Day of Onset +/− SEM” value is 8.4 +/− 0.4. The “Mean disease scores over days measured” value with NMO mouse model (FIG. 3, 10 recipient mice per cohort, vs PBS or either treatment alone) is “early efficacy compared to Mpred alone and PBS (control) on Day 5 and 6 but afterwards did not show therapeutic effect”. Besides, the Onset of disease entry in the assay with murine model of NMO (A1AT 2 mg i.p. daily Day 5 to Day 18 post-transfer) is on record as “delay onset of disease”. In the assay with murine model of NMO (A1AT 2 mg or Sivelestat 0.5 mg i.p. daily Day 5 to Day 18 post-transfer, vs PBS), the NMO disease score result is “reduced the NMO disease score compared to PBS (control) and was superior to Sivelestat at all days of overt signs of disease”.
Consider `C[C@H]1C[C@@H]2[C@H]([C@@H](O)C[C@@]3(C)[C@H]2CC[C@]3(O)C(=O)CO)[C@@]2(C)C=CC(=O)C=C12` [Mpred, methylprednisolone, reference compound], for which the “Demyelination (H + E) score +/− SD” value in assay [2] was 1.2 +/− 0.3. For the same molecule, in assay [2] (4 mice per treatment cohort), the “Apoptotic Cells +/− SD (apoptotic cell counts)” value was 1.3 +/− 0.9 and the “Inflammatory foci +/− SD (number of inflammatory foci per section >20 cells)” value is reported as 3.0 +/− 0.9. Moreover, in the assay with NMO mouse model, the “End Score (end disease score +/− SD)” value is 2.25 +/− 0.42, the “MMS +/− SD (mean maximum disease score)” value is listed as 2.95 +/− 0.44 and the “Mean Day of Onset +/− SEM” value is 8.5 +/− 0.4.

Source of the values: patent publication US20180050082A1, “SERPINS FOR THE TREATMENT OF NEUROINFLAMMATORY DISEASES” (Anvil Biosciences, LLC, priority 2015, published 2018).
